Assay results reported in ChEMBL document CHEMBL1142788, “Synthesis and antibacterial activity of alkyl derivatives of the glycopeptide antibiotic A40926 and their amides” (2005).
Values after ≈ are worked out from the molar mass of the structure shown.

Legend:
Enterococcus faecium [1] = assay: Minimum inhibitory concentration against vancomycin-A Enterococcus faecium in the presence of 30% bovine serum (n=1) (range = 0.5>128mg/l); type: functional
Enterococcus faecalis [2] = assay: Minimum inhibitory concentration against vancomycin-A Enterococcus faecalis in the presence of 30% bovine serum (n=4) (range = 2-4 mg/L); type: functional
Enterococcus faecalis [3] = assay: Minimum inhibitory concentration against vancomycin-sensitive Enterococcus faecalis in the presence of 30% bovine serum(n=3)(range = 0.25-1mg/l); type: functional
[4] = tested on: Staphylococcus epidermidis; assay: Minimum inhibitory concentration against methicillin-sensitive Staphylococcus epidermidis in the presence of 30% bovine serum; type: functional
[5] = tested on: Staphylococcus haemolyticus; assay: Minimum inhibitory concentration against Staphylococcus haemolyticus in the presence of 30% bovine serum; type: functional
[6] = tested on: Staphylococcus epidermidis; assay: Minimum inhibitory concentration against methicillin-resistant Staphylococcus epidermidis in the presence of 30% bovine serum; type: functional
Enterococcus faecium [7] = assay: Minimum inhibitory concentration against vancomycin-sensitive Enterococcus faecium in the presence of 30% bovine serum(n=1); type: functional
Staphylococcus aureus [8] = assay: Minimum inhibitory concentration against methicillin-resistant Staphylococcus aureus
Enterococcus faecium [9] = assay: Minimum inhibitory concentration against vancomycin-A Enterococcus faecium in the presence of 30% bovine serum (n=1) (range = 1>128mg/l); type: functional
Enterococcus faecalis [10] = assay: Minimum inhibitory concentration against vancomycin-A Enterococcus faecalis in the presence of 30% bovine serum(n=4) (range = 16>128mg/L); type: functional
Enterococcus faecalis [11] = assay: Minimum inhibitory concentration against vancomycin-sensitive Enterococcus faecalis in the presence of 30% bovine serum (n=3); type: functional
Staphylococcus aureus [12] = assay: Minimum inhibitory concentration against methicillin-sensitive Staphylococcus aureus
Enterococcus faecium [13] = assay: Minimum inhibitory concentration against vancomycin-A Enterococcus faecium in the presence of 30% bovine serum (n=1) (range = 2-64mg/L); type: functional
Enterococcus faecalis [14] = assay: Minimum inhibitory concentration against vancomycin-sensitive Enterococcus faecalis in the presence of 30% bovine serum(n=3)(range =0.125-0.25 mg/l); type: functional
Enterococcus faecium [15] = assay: Minimum inhibitory concentration against vancomycin-A Enterococcus faecium in the presence of 30% bovine serum (n=1) (range = 64>128mg/L); type: functional
Enterococcus faecalis [16] = assay: Minimum inhibitory concentration against vancomycin-sensitive Enterococcus faecalis in the presence of 30% bovine serum(n=3)(range = 0.5-1mg/l); type: functional
Enterococcus faecalis [17] = assay: Minimum inhibitory concentration against vancomycin-A Enterococcus faecalis in the presence of 30% bovine serum (n=4); type: functional
Enterococcus faecalis [18] = assay: Minimum inhibitory concentration against vancomycin-A Enterococcus faecalis in the presence of 30% bovine serum(n=4) (range = 0.5-8 mg/L); type: functional
Enterococcus faecium [19] = assay: Minimum inhibitory concentration against vancomycin-A Enterococcus faecium in the presence of 30% bovine serum (n=1); type: functional
Enterococcus faecium [20] = assay: Minimum inhibitory concentration against vancomycin-A Enterococcus faecium in the presence of 30% bovine serum (n=1) (range = 0.25-32mg/l); type: functional
Enterococcus faecalis [21] = assay: Minimum inhibitory concentration against vancomycin-A Enterococcus faecalis in the presence of 30% bovine serum(n=4) (range = 0.5-8mg/L); type: functional
Enterococcus faecalis [22] = assay: Minimum inhibitory concentration against vancomycin-sensitive Enterococcus faecalis in the presence of 30% bovine serum(n=3); type: functional

SMILES	MIC [4]	MIC [5]	MIC [6]	MIC (Enterococcus faecium [7])	MIC (Staphylococcus aureus [8])	MIC (Enterococcus faecalis [11])	MIC (Staphylococcus aureus [12])	also measured
CCCCc1ccc(CNC2[C@H](Oc3c4cc5cc3Oc3ccc(cc3Cl)[C@@H](O)C3NC(=O)[C@H](NC(=O)[C@@H]5NC(=O)[C@H]5NC(=O)[C@@H](Cc6ccc(cc6)O4)NC(=O)[C@H](N(C)Cc4ccc(CCCC)cc4)c4ccc(O)c(c4)Oc4cc(O)c(Cl)c5c4)c4ccc(O)c(c4)-c4c(O[C@H]5O[C@H](CO)[C@@H](O)[C@H](O)[C@@H]5O)cc(O)cc4[C@@H](C(=O)O)NC3=O)OC(C(=O)O)C(O)[C@@H]2O)cc1 (stereo not given in full)	4 µg/mL	8 µg/mL	8 µg/mL	1 µg/mL	2 µg/mL (≈ 1.09 µM)			MIC (Enterococcus faecium [1]): > 128 µg/mL; MIC (Enterococcus faecalis [2]): 4 µg/mL; MIC (Enterococcus faecalis [3]): 1 µg/mL
CCCCn1cc(CNC2[C@H](Oc3c4cc5cc3Oc3ccc(cc3Cl)[C@@H](O)C3NC(=O)[C@H](NC(=O)[C@@H]5NC(=O)[C@H]5NC(=O)[C@@H](Cc6ccc(cc6)O4)NC(=O)[C@H](N(C)Cc4cn(CCCC)c6ccccc46)c4ccc(O)c(c4)Oc4cc(O)c(Cl)c5c4)c4ccc(O)c(c4)-c4c(O[C@H]5O[C@H](CO)[C@@H](O)[C@H](O)[C@@H]5O)cc(O)cc4[C@@H](C(=O)O)NC3=O)OC(C(=O)O)C(O)[C@@H]2O)c2ccccc21 (stereo not given in full)	4 µg/mL	64 µg/mL	32 µg/mL	< 0.125 µg/mL	2 µg/mL (≈ 1.04 µM)	0.25 µg/mL	4 µg/mL (≈ 2.08 µM)	MIC (Enterococcus faecium [9]): > 128 µg/mL; MIC (Enterococcus faecalis [10]): > 128 µg/mL
CCCCCCCCCCc1ccc(CNC2[C@H](Oc3c4cc5cc3Oc3ccc(cc3Cl)[C@@H](O)C3NC(=O)[C@H](NC(=O)[C@@H]5NC(=O)[C@H]5NC(=O)[C@@H](Cc6ccc(cc6)O4)NC(=O)[C@H](NC)c4ccc(O)c(c4)Oc4cc(O)c(Cl)c5c4)c4ccc(O)c(c4)-c4c(O[C@H]5O[C@H](CO)[C@@H](O)[C@H](O)[C@@H]5O)cc(O)cc4[C@@H](C(=O)O)NC3=O)OC(C(=O)O)C(O)[C@@H]2O)cc1 (stereo not given in full)	32 µg/mL	32 µg/mL		0.5 µg/mL	2 µg/mL (≈ 1.12 µM)		4 µg/mL (≈ 2.25 µM)	MIC (Enterococcus faecium [13]): > 64 µg/mL; MIC (Enterococcus faecalis [14]): 0.125 µg/mL
CN(Cc1ccc2ccccc2c1)[C@H]1C(=O)N[C@@H]2Cc3ccc(cc3)Oc3cc4cc(c3O[C@@H]3OC(C(=O)O)C(O)[C@H](O)C3N)Oc3ccc(cc3Cl)[C@@H](O)C3NC(=O)[C@H](NC(=O)[C@@H]4NC(=O)[C@@H](NC2=O)c2cc(cc(O)c2Cl)Oc2cc1ccc2O)c1ccc(O)c(c1)-c1c(O[C@H]2O[C@H](CO)[C@@H](O)[C@H](O)[C@@H]2O)cc(O)cc1[C@@H](C(=O)O)NC3=O (stereo not given in full)	16 µg/mL	128 µg/mL	32 µg/mL	1 µg/mL	2 µg/mL (≈ 1.18 µM)		2 µg/mL (≈ 1.18 µM)	MIC (Enterococcus faecium [15]): > 128 µg/mL; MIC (Enterococcus faecalis [16]): 1 µg/mL; MIC (Enterococcus faecalis [17]): 128 µg/mL
CCCCCCCCOc1ccc(CNC2[C@H](Oc3c4cc5cc3Oc3ccc(cc3Cl)[C@@H](O)C3NC(=O)[C@H](NC(=O)[C@@H]5NC(=O)[C@H]5NC(=O)[C@@H](Cc6ccc(cc6)O4)NC(=O)[C@H](NC)c4ccc(O)c(c4)Oc4cc(O)c(Cl)c5c4)c4ccc(O)c(c4)-c4c(O[C@H]5O[C@H](CO)[C@@H](O)[C@H](O)[C@@H]5O)cc(O)cc4[C@@H](C(=O)NCCCN(C)C)NC3=O)OC(C(=O)NCCCN(C)C)C(O)[C@@H]2O)cc1 (stereo not given in full)	0.125 µg/mL	4 µg/mL		0.13 µg/mL	0.25 µg/mL (≈ 0.129 µM)	0.25 µg/mL	0.5 µg/mL (≈ 0.258 µM)	MIC (Enterococcus faecalis [18]): 8 µg/mL; MIC (Enterococcus faecium [19]): 0.8 µg/mL
CN(C)CCCNC(=O)C1O[C@@H](Oc2c3cc4cc2Oc2ccc(cc2Cl)[C@@H](O)C2NC(=O)[C@H](NC(=O)[C@@H]4NC(=O)[C@H]4NC(=O)[C@@H](Cc5ccc(cc5)O3)NC(=O)[C@H](N(C)Cc3c[nH]c5ccccc35)c3ccc(O)c(c3)Oc3cc(O)c(Cl)c4c3)c3ccc(O)c(c3)-c3c(O[C@H]4O[C@H](CO)[C@@H](O)[C@H](O)[C@@H]4O)cc(O)cc3[C@@H](C(=O)NCCCN(C)C)NC2=O)C(NCc2c[nH]c3ccccc23)[C@@H](O)C1O (stereo not given in full)	1 µg/mL	2 µg/mL	2 µg/mL	0.25 µg/mL	1 µg/mL (≈ 0.506 µM)		2 µg/mL (≈ 1.01 µM)	MIC (Enterococcus faecium [20]): 32 µg/mL; MIC (Enterococcus faecalis [21]): 8 µg/mL; MIC (Enterococcus faecalis [22]): < 0.125 µg/mL
